Results as given in the NIST ThermoML archive (doi:10.1021/je900966r).

Key:
[1] = refractive index (Na D-line) (dimensionless); mn = molality of the nth substance listed, in mol/kg; details: 298.15 K, 101 kPa, Liquid, Standard Abbe refractometry
[2] = mn = molality of the nth substance listed, in mol/kg; details: 101 kPa, Liquid

O [water] + OC[C@@H](O)[C@@H](O)[C@H](O)[C@H](O)CO
Details | refractive index
[1], m2 = 0 | 1.3326

CC(C)O [propan-2-ol] + O
[1]
Details | refractive index
m1 = 0.1 | 1.3329
m1 = 0.1501 | 1.3335
m1 = 0.1999 | 1.3338
m1 = 0.3 | 1.3341
m1 = 0.3998 | 1.3345
m1 = 0.5 | 1.335

mass density [kg/m3], [2]
Details | m1 = 0.1 | m1 = 0.1501 | m1 = 0.1999 | m1 = 0.3 | m1 = 0.3998 | m1 = 0.5
293.15 K | 996.544 | 995.924 | 995.4 | 994.591 | 993.922 | 993.065
298.15 K | 995.386 | 994.764 | 994.22 | 993.429 | 992.857 | 991.893
303.15 K | 993.986 | 993.358 | 992.795 | 992.018 | 991.441 | 990.472
308.15 K | 992.365 | 991.731 | 991.148 | 990.384 | 989.702 | 988.826
313.15 K | 990.542 | 989.901 | 989.299 | 988.545 | 987.816 | 986.979

CCCO [propan-1-ol] + O
[1]
Details | refractive index
m1 = 0.1001 | 1.3331
m1 = 0.15 | 1.3338
m1 = 0.2 | 1.3341
m1 = 0.3 | 1.3344
m1 = 0.4 | 1.3349
m1 = 0.5 | 1.3353

mass density [kg/m3], [2]
Details | m1 = 0.1001 | m1 = 0.15 | m1 = 0.2 | m1 = 0.3 | m1 = 0.4 | m1 = 0.5
293.15 K | 996.609 | 996.479 | 996.336 | 995.903 | 994.27 | 993.364
298.15 K | 995.441 | 995.293 | 995.163 | 994.694 | 993.072 | 992.148
303.15 K | 994.029 | 993.828 | 993.747 | 993.242 | 991.629 | 990.687
308.15 K | 992.397 | 992.237 | 992.113 | 991.569 | 989.962 | 989.004
313.15 K | 990.564 | 990.399 | 990.278 | 989.694 | 988.093 | 987.114

OC[C@@H](O)[C@@H](O)[C@H](O)[C@H](O)CO [mannitol] + O
[1]
Details | refractive index
m1 = 0.1 | 1.3358
m1 = 0.1499 | 1.337
m1 = 0.1999 | 1.3385
m1 = 0.25 | 1.3396
m1 = 0.3 | 1.341
m1 = 0.35 | 1.3422
m1 = 0.4 | 1.343

mass density [kg/m3], [2]
Details | m1 = 0.1 | m1 = 0.1499 | m1 = 0.1999 | m1 = 0.25 | m1 = 0.3 | m1 = 0.35 | m1 = 0.4
293.15 K | 1004.39 | 1007.5 | 1010.61 | 1013.69 | 1016.75 | 1019.74 | 1022.71
298.15 K | 1003.21 | 1006.3 | 1009.4 | 1012.46 | 1015.48 | 1018.46 | 1021.43
303.15 K | 1001.79 | 1004.87 | 1007.95 | 1010.98 | 1013.99 | 1016.97 | 1019.92
308.15 K | 1000.12 | 1003.19 | 1006.23 | 1009.26 | 1012.25 | 1015.19 | 1018.13
313.15 K | 998.283 | 1001.33 | 1004.36 | 1007.37 | 1010.33 | 1013.26 | 1016.18
